# Data as given in article PMC8746705, “Comparison of Experimental Strategies to Study L-Type Amino Acid Transporter 1 (LAT1) Utilization by Ligands” (Molecules, 2021).
# Columns and labels:
# [1] = molecular target: LAT1 (Mus musculus, UniProt Q9Z127); assay: Concentration-dependent cellular uptake into BV2 cells, Eadie–Hofstee analysis, Transport Type 1 (LAT1); type: cell-based; details: for Km / Transport Type 1 (LAT1) Vmax: 1–200 µM, 30 min, BV2, Eadie–Hofstee, mean ± SD, n = 3; for Cellular uptake: BV2 cells
# Method in brief: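 Mouse BV2 microglia incubated 30 min at 37 °C in HBSS with compounds at 1–200 μM. Intracellular compound quantified by LC-MS/MS (positive ESI, C18 column) and normalized to total protein. Transport components resolved from Michaelis-Menten kinetics by Eadie–Hofstee analysis.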
# [2] = tested on: Transport Type 2; assay: Concentration-dependent cellular uptake into BV2 cells, Eadie–Hofstee analysis, Transport Type 2; type: cell-based, mouse; details: 1–200 µM, 30 min, mean ± SD, n = 3
# Method: For the concentration-dependent cellular uptake experiments, the BV2 cells on 24-well plates were incubated with studied compounds (1–200 μM) in pre-warmed HBSS buffer (250 μL) at 37 °C for 30 min. The experiment was then carried out as described for the time-dependent uptake above and the concentration of studied compounds in the cell lysate was analyzed by the LC-MS/MS methods described above and the results were normalized to the total protein concentration. The distinct transport mechanisms were separated from the Michaelis-Menten kinetics by using Eadie–Hofstee plot.
# The studied compounds (1–15) were analyzed by using Agilent 1200 Series Rapid Resolution LC System together with an Agilent 6410 Triple Quadrupole Mass Spectrometer equipped with an electrospray ionization source (Agilent Technologies, Santa Clara, CA, USA). The chromatographic separations of analytes were achieved by using a reversed-phase Zobrax SB-C18 column (50 mm × 2.1 mm, 1.8 μm; Agilent Technologies, Santa Clara, CA, USA) by eluting the samples with 0.1% formic acid in water (A) and 0.1% formic in ACN (B). Labetalol and diclofenac were used as internal standards (ISTD) for the prodrugs and parent drugs, respectively. The transitions used for the quantification at the positive ion mode and chromatographic conditions of each compound and their parent drugs are listed in Table S1. The methods of compounds 1–11 have been reported earlier, while the methods of compounds 12–15 are reported herein for the first time.
# [3] = tested on: LAT1; assay: Quantitative expression of LAT1 on the BV2 plasma membrane (LC-MS proteomics); type: cell-based, mouse; details: BV2 cells incubated 24 h; normalized to Na+/K+ATPase; compared to untreated control
# Method: The protein expression levels of LAT1, in the plasma membrane fractions of BV2 cells were quantified using multiplexed MRM analysis according to the protocol described by Uchida et al.. First, the crude membrane fractions were isolated from three distinct sets of cell culture plates using Membrane Protein Extraction Kit (BioVision Incorporated, Milpitas, CA, USA) according to the manufacturer’s instructions. The protein content for each fraction was measured by Bio-Rad Protein Assay, based on the Bradford dye-binding method (EnVision, Perkin Elmer, Inc., Waltham, MA, USA). A total amount of 50 µg protein from each fraction was solubilized/denatured in 7 M guanidine hydrochloride, 0.5 M Tris-HCl and 10 mM EDTA-Na. The proteins were then reduced by dithiothreitol (1:50, w/w) and S-carboxymethylated by iodoacetamide (1:20, w/w). The alkylated proteins were precipitated by methanol/chloroform/water (4:1:3) and centrifuged at 18,000× g for 5 min at 4 °C. The pellet was resuspended in 6 M urea and mixed for 10 min at room temperature before the dilution with 0.1 M Tris-HCl (pH 8.5) to a final concentration of 1.2 M urea, and dissolved completely by intermittent sonication (Branson 3510, Danbury, CT, USA). The dissolved proteins were first digested with LysC (1/100, w/w) and 0.05% ProteaseMax (Promega Biotech AB, Nacka, Sweden) for 3 h at room temperature. Then, the samples were spiked with 10 µL (30 fmol) of the labelled peptides for absolute quantification (JPT Peptide Technologies GmbH, Berlin, Germany) (Table S2). The samples were incubated with (1/100, w/w) TPCK-Trypsin (Promega Biotech AB, Nacka, Sweden) for 18 h at 37 °C. The tryptic digestion was then quenched by adding 40 µL of 5% formic acid. The samples were then centrifuged at 18,000× g for 5 min at 4 °C, and the supernatants were transferred to vials for analysis.
# The digested peptides were analyzed using an ultra-performance liquid chromatography system coupled with a triple quadrupole mass spectrometer with a heated electrospray ionization source in the positive mode (UPLC 1290 and MSD 6495, Agilent Technologies, Santa Clara, CA, USA). A total amount of 20 µL of the digested peptides (10 µg) was separated using AdvanceBio Peptide Map 2.1 × 250 mm, 2.7 μm column (Agilent Technologies, Santa Clara, CA, USA) and LC eluents of 0.1% formic acid in water (A) and acetonitrile (B). The peptides were eluted following a constant flow rate of 0.3 mL/min and a gradient of 2–7% B for 2 min, followed by 7–30% B for 48 min, 30–45% B for 3 min, and 45–80% B for 2.5 min before re-equilibrating the column again for 4.5 min. LAT1 was quantified based on the ratio between the light and heavy standard peptides, as described previously (Table S2). Data was acquired using Agilent MassHunter Workstation Acquisition (Agilent Technologies, Data Acquisition for Triple Quadrupole, version B.03.01) and processed by using Skyline software (version 20.1). The results were normalized to a housekeeping protein Na+/K+ATPase and expressed as fmol/µg of the total amount of protein in the samples.
# Sequence of LAT1 (Mus musculus, UniProt Q9Z127) (Q9Z127 whole entry): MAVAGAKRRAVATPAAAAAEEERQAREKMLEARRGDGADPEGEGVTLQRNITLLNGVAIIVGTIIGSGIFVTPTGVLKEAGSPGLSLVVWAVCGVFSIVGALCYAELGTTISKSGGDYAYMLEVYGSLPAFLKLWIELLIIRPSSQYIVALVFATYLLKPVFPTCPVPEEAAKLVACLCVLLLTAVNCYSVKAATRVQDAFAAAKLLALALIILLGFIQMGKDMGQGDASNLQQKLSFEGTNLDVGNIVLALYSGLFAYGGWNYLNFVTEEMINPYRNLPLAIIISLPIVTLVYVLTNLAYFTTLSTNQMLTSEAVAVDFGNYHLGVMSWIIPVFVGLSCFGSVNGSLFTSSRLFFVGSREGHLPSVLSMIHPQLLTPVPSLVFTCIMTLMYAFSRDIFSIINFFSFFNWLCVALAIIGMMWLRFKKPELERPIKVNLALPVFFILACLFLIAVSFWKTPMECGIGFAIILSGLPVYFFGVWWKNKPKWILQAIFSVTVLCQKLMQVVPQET
# Sequence of LAT1 (Mus musculus, UniProt Q9Z127) (P10852 whole entry partner): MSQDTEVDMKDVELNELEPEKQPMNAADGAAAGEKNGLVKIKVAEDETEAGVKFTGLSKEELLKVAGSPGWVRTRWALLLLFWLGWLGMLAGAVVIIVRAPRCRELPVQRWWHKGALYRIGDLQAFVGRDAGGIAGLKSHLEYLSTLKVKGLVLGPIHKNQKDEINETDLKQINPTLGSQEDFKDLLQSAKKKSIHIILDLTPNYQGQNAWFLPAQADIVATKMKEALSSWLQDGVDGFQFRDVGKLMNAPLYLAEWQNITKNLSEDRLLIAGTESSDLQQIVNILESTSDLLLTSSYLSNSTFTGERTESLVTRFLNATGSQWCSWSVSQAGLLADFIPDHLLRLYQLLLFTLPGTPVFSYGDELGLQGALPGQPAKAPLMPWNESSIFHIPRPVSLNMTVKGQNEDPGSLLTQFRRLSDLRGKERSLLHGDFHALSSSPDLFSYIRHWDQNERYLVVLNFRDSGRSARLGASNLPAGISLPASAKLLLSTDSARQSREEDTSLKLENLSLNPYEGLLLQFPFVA
Compound,Km [1] [µM],Transport Type 1 (LAT1) Vmax [1] [pmol/mg/min],Cellular uptake [1],Km [2] [µM],Transport Type 2 Vmax [2] [pmol/mg/min],LAT1 expression on the plasma membrane [3]
C[C@H](C(=O)Oc1cccc(C[C@H](N)C(=O)O)c1)c1ccc(-c2ccccc2)c(F)c1 [Compound 12],–,–,–,–,–,did not have any effect on LAT1 expression
COc1cc(/C=C/C(=O)Oc2cccc(C[C@H](N)C(=O)O)c2)ccc1O [Compound 7],0.3 ± 0.1,0.09 ± 0.03,–,62 ± 14,0.21 ± 0.02,–
C[C@H](C(=O)Nc1cccc(C[C@H](N)C(=O)O)c1)c1ccc(-c2ccccc2)c(F)c1 [Compound 9],–,–,–,–,–,did not have any effect on LAT1 expression
COc1cc(C=CC(=O)NCc2cccc(CC(N)C(=O)O)c2)ccc1O (centres unmarked) [Compound 5],2.1 ± 0.4,0.11 ± 0.01,–,77 ± 13,0.27 ± 0.02,downregulated LAT1 expression
N[C@@H](Cc1cccc(NC(=O)c2ccccc2O)c1)C(=O)O [Compound 8],–,–,–,41 ± 5,185 ± 10,did not have any effect on LAT1 expression

# Second part, led by results:
Km [1] [µM],Transport Type 1 (LAT1) Vmax [1] [pmol/mg/min],Cellular uptake [1],Compound,Km [2] [µM],Transport Type 2 Vmax [2] [pmol/mg/min],LAT1 expression on the plasma membrane [3]
41 ± 6,88 ± 9,effectively transported into the cells,C[C@H](C(=O)Oc1cccc(C[C@H](N)C(=O)O)c1)c1cccc(C(=O)c2ccccc2)c1 [Compound 4],159 ± 45,231 ± 40,–
9.3 ± 2.7,280 ± 65,highest cellular uptake,COc1ccc2cc([C@H](C)C(=O)Oc3cccc(C[C@H](N)C(=O)O)c3)ccc2c1 [Compound 15],–,–,–
116 ± 72,750 ± 435,highest cellular uptake,NC(Cc1cccc(C(=O)Oc2ccc(-c3ccc(-c4ccc5c(c4)COC5=O)s3)cc2)c1)C(=O)O (centres unmarked) [Compound 1],347 ± 26,5067 ± 327,–
0.8 ± 0.1,0.09 ± 0.01,–,C[C@H](C(=O)Nc1cccc(C[C@H](N)C(=O)O)c1)c1cccc(C(=O)c2ccccc2)c1 [Compound 2],199 ± 50,0.88 ± 0.16,downregulated LAT1 expression
